Reference: PubChem BioAssay AID489026 (Sanford-Burnham Center for Chemical Genomics, 2010)
The source made the active and inactive calls. No rule for the calls is given here.

System: HEK-293T cytotoxicity, luminescence viability
Test: cytotoxicity in HEK-293T cells, dose response, cytotoxicity control, luminescence, T-cell screen hits (AID 489026)

| Compound | IC50 |
| --- | --- |
| C=C(C=O)C[C@@H]1C[C@H](O)C2OC3C[C@]4(C)OC5/C=C\CC6OC7C(CC=CCC6OC5CCCC4OC3CC2O1)OC1CC2OC3CC(=O)OC3C[C@@H](C)C[C@@]2(C)OC1C[C@@H]7C (some centres not stated) | 39.8 µM (inactive) |
| C[C@@H]1O[C@@H](O[C@H]2C[C@@H](O)[C@]3(CO)[C@@H]4C(CC[C@]3(O)C2)[C@@]2(O)CC[C@H](C3COC(=O)C3)[C@@]2(C)C[C@H]4O)[C@H](O)[C@H](O)[C@H]1O (some centres not stated) | > 80 µM (inactive) |
